Assay results from the supplement of paper PMC10307832.

Experiments:
Test in all cases: relative viability (nuclei count vs DMSO), 5 days (fraction); higher = more cells survive
JZL-184 + Bortezomib = compound: C1CN(CCC1C(C2=CC3=C(C=C2)OCO3)(C4=CC5=C(C=C4)OCO5)O)C(=O)OC6=CC=C(C=C6)[N+](=O)[O-] [JZL-184] + CC(C)C[C@H](NC(=O)[C@H](Cc1ccccc1)NC(=O)c1cnccn1)B(O)O [Bortezomib] (partner 0.002 µM)
How it was run: (§1)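 Lung cancer cell lines in 1536-well plates got either a single drug or a fixed anchor-drug dose together with five library-drug doses (not always all listed) in √10 steps, by pin tool, on the day after seeding. Nuclei were counted after 5 days, and relative viability is the treated-to-vehicle ratio of nuclei counts. Values are medians of duplicate plates.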

JZL-184 + Linsitinib = compound: C1CN(CCC1C(C2=CC3=C(C=C2)OCO3)(C4=CC5=C(C=C4)OCO5)O)C(=O)OC6=CC=C(C=C6)[N+](=O)[O-] [JZL-184] + C[C@]1(O)C[C@@H](c2nc(-c3ccc4ccc(-c5ccccc5)nc4c3)c3c(N)nccn32)C1 [Linsitinib] (partner 1 µM)
How it was run: as §1

JZL-184 + Tozasertib = compound: C1CN(CCC1C(C2=CC3=C(C=C2)OCO3)(C4=CC5=C(C=C4)OCO5)O)C(=O)OC6=CC=C(C=C6)[N+](=O)[O-] [JZL-184] + Cc1cc(Nc2cc(N3CCN(C)CC3)nc(Sc3ccc(NC(=O)C4CC4)cc3)n2)n[nH]1 [Tozasertib] (partner 0.1 µM)
How it was run: as §1

JZL-184 + Phenformin = compound: C1CN(CCC1C(C2=CC3=C(C=C2)OCO3)(C4=CC5=C(C=C4)OCO5)O)C(=O)OC6=CC=C(C=C6)[N+](=O)[O-] [JZL-184] + N=C(N)NC(=N)NCCc1ccccc1 [Phenformin] (partner 250 µM)
How it was run: as §1

JZL-184 + Pemetrexed = compound: C1CN(CCC1C(C2=CC3=C(C=C2)OCO3)(C4=CC5=C(C=C4)OCO5)O)C(=O)OC6=CC=C(C=C6)[N+](=O)[O-] [JZL-184] + Nc1nc2[nH]cc(CCc3ccc(C(=O)N[C@@H](CCC(=O)O)C(=O)O)cc3)c2c(=O)[nH]1 [Pemetrexed] (partner 0.2 µM)
How it was run: as §1

Cell Line | relative viability (JZL-184 + Bortezomib; first compound 0.04 µM) | relative viability (JZL-184 + Bortezomib; first compound 0.4 µM) | relative viability (JZL-184 + Bortezomib; first compound 1.265 µM) | relative viability (JZL-184 + Bortezomib; first compound 4 µM) | relative viability (JZL-184 + Linsitinib; first compound 0.04 µM) | relative viability (JZL-184 + Linsitinib; first compound 0.4 µM) | relative viability (JZL-184 + Linsitinib; first compound 1.265 µM) | relative viability (JZL-184 + Linsitinib; first compound 4 µM) | relative viability (JZL-184 + Tozasertib; first compound 0.04 µM) | relative viability (JZL-184 + Tozasertib; first compound 0.4 µM) | relative viability (JZL-184 + Tozasertib; first compound 1.265 µM) | relative viability (JZL-184 + Tozasertib; first compound 4 µM) | relative viability (JZL-184 + Phenformin; first compound 0.04 µM) | relative viability (JZL-184 + Phenformin; first compound 0.4 µM) | relative viability (JZL-184 + Phenformin; first compound 1.265 µM) | relative viability (JZL-184 + Phenformin; first compound 4 µM) | relative viability (JZL-184 + Pemetrexed; first compound 0.04 µM) | relative viability (JZL-184 + Pemetrexed; first compound 0.4 µM) | relative viability (JZL-184 + Pemetrexed; first compound 1.265 µM) | relative viability (JZL-184 + Pemetrexed; first compound 4 µM)
A-427 | 1.05 | 0.965 | 1 | 0.918 | 1.15 | 1.17 | 1.18 | 1.1 | 0.194 | 0.186 | 0.264 | 0.239 | 0.308 | 0.327 | 0.441 | 0.306 | 1.03 | 0.971 | 1.06 | 0.886
IA-LM | 1.04 | 0.786 | 0.844 | 0.866 | 1.06 | 0.529 | 0.607 | 0.554 | – | – | – | – | – | – | – | – | – | – | – | –
ChaGo-K-1 | 1.45 | 0.984 | 1.1 | 1.03 | – | – | – | – | 0.265 | 0.224 | 0.211 | 0.235 | 0.616 | 0.449 | 0.467 | 0.44 | 0.262 | 0.257 | 0.256 | 0.266
NCI-H2342 | – | – | – | – | – | – | – | – | 0.432 | 0.399 | 0.485 | 0.449 | 0.598 | 0.534 | 0.635 | 0.697 | 0.654 | 0.732 | 0.78 | 0.778
SK-MES-1 | – | – | – | – | 1.07 | 1.04 | 1.1 | 1.06 | 1.04 | 0.878 | 0.908 | 0.706 | 0.736 | 0.64 | 0.688 | 0.615 | 0.9 | 0.872 | 1 | 0.907
LCLC-97TM1 | 0.612 | 0.624 | 0.804 | 0.573 | 0.183 | – | 0.208 | 0.198 | 0.41 | 0.177 | 0.242 | 0.242 | 0.396 | 0.431 | 0.449 | 0.435 | 0.166 | 0.17 | 0.13 | 0.201
NCI-H2170 | – | – | – | – | – | – | – | – | 0.83 | 0.646 | 0.787 | 0.66 | 0.435 | 0.407 | 0.419 | 0.419 | 0.267 | 0.258 | 0.252 | 0.286
NCI-H1993 | 1.17 | 1.14 | 1.21 | 1.22 | 0.703 | 0.773 | 0.727 | 0.696 | 0.554 | 0.582 | 0.593 | 0.555 | 0.428 | 0.476 | 0.487 | 0.47 | 0.63 | 0.577 | 0.619 | 0.68
NCI-H460 | 1.83 | 1.05 | 1.05 | 1.11 | 1.03 | 0.623 | 0.87 | 0.72 | 0.428 | 0.604 | 0.571 | 0.275 | 0.626 | 0.483 | 0.521 | 0.485 | 0.0624 | 0.0591 | 0.0649 | 0.0648
NCI-H1975 | 0.361 | 0.419 | 0.358 | 0.336 | 1.04 | 1.04 | 1.02 | 0.896 | 0.757 | 0.686 | 0.869 | 0.634 | 0.414 | 0.411 | 0.395 | 0.397 | 0.307 | 0.281 | 0.296 | 0.263
ABC-1 | 0.336 | 0.352 | 0.375 | 0.247 | 0.988 | 0.821 | 0.812 | 0.756 | 0.195 | 0.202 | 0.174 | 0.164 | 0.225 | 0.224 | 0.301 | 0.247 | – | – | – | –
NCI-H1792 | 1.13 | 0.405 | 0.954 | 0.952 | 0.573 | 0.462 | 0.653 | 0.51 | – | – | – | – | 0.288 | 0.147 | 0.62 | 0.281 | 1.05 | 0.699 | 1.1 | 0.812
NCI-H727 | 0.988 | 0.689 | 0.797 | 0.802 | 0.203 | 0.314 | 0.233 | 0.373 | 0.594 | 0.568 | 0.777 | 0.583 | 0.676 | 0.517 | 0.509 | 0.45 | – | – | – | –
NCI-H1944 | – | – | – | – | 1.18 | 1.2 | 1.28 | 1.16 | 0.283 | 0.251 | 0.281 | 0.248 | 0.194 | 0.192 | 0.198 | 0.199 | 0.587 | 0.53 | 0.72 | 0.567
NCI-H1703 | 0.349 | 0.213 | 0.359 | 0.467 | 0.893 | 0.765 | 0.738 | 0.305 | – | – | – | – | – | – | – | – | – | – | – | –
NCI-H1650 | 0.192 | 0.179 | 0.228 | 0.198 | – | – | – | – | 0.417 | 0.325 | 0.432 | 0.257 | 0.427 | 0.411 | 0.524 | 0.357 | 0.341 | 0.391 | 0.366 | 0.354
NCI-H1395 | – | – | – | – | 1.12 | 1.4 | 1.19 | 0.99 | 0.684 | 0.738 | 0.827 | 0.748 | 0.392 | 0.421 | 0.491 | 0.413 | 0.785 | 0.948 | 0.985 | 0.75
NCI-H1793 | – | – | – | – | 0.849 | 0.82 | 0.853 | 0.707 | 0.289 | 0.385 | 0.409 | 0.233 | 0.162 | 0.368 | 0.44 | 0.456 | 0.936 | 0.801 | 0.982 | 0.735
NCI-H522 | – | – | – | – | – | – | – | – | 0.668 | 0.5 | 0.618 | 0.563 | 0.606 | 0.667 | 0.59 | 0.635 | 1.23 | 0.981 | 1.02 | 1.16
SW 900 | – | – | – | – | – | – | – | – | 0.497 | 0.459 | 0.605 | 0.482 | 0.595 | 0.506 | 0.555 | 0.748 | 0.496 | 0.482 | 0.537 | 0.491
